Values quoted from earlier work, collected in US10865157B2, “Methods and compositions for increasing the yield of, and beneficial chemical composition of, certain plants” (B.K. Consultants, Inc., priority 2014, dated 2020).

Conditions: similarly sized particles

SMILES: CC(=O)Oc1ccccc1C(=O)O [non-crystalline aspirin, aspirin]
- solubility in water relative to the crystal form: 2 to 8 times
